Assay results taken from patent US20240158370A1, “CK1 alpha AND DUAL CK1 alpha / GSPT1 DEGRADING COMPOUNDS” (Innovo Therapeutics, Inc., priority 2022, published 2024).

Assays:
CK1α = target: T1, CK1α (Homo sapiens, UniProt P48729+Q96SW2); assay: HiBiT degradation assay, CK1α, Procedure A; type: cell-based; conditions: six hours
T1 construct: CSNK1A1-HiBit KI HEK293(LgBit) Cells; host or cells: HEK293(LgBit) knock-in cells
Outline: (§1)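 DC50 and Ymin (% remaining) were derived by four-parameter fitting of luminescence data. The data come from a six-hour, 37° C compound exposure of cells in DMEM/10% FBS over a ten-point range, 10 μM to 0.005 μM, followed by Nano-Glo HiBiT lytic detection.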

GSPT1 = GSPT1 (Homo sapiens, UniProt P15170+Q96SW2); assay: HiBiT degradation assay, GSPT1, Procedure A; type: cell-based; parameters: HiBit-GSPT1 KI HEK293(LgBit) Cells; host or cells: HEK293(LgBit) knock-in cells; conditions: six hours
Chain of GSPT1 (P15170 whole entry): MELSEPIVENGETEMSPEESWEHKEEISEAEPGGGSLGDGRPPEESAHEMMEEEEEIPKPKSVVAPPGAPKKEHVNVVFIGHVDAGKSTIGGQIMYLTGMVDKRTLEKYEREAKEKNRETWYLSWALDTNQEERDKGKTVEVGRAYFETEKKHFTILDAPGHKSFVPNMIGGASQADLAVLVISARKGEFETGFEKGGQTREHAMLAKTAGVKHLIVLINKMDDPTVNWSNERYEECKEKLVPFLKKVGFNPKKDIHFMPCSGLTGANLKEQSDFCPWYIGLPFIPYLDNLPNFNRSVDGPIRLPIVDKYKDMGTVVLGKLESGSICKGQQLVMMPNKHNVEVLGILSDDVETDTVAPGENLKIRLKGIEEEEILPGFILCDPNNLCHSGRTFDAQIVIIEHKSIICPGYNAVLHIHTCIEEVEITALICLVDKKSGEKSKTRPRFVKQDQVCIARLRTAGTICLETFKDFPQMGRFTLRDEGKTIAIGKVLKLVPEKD
Chain of GSPT1 (Q96SW2 whole entry): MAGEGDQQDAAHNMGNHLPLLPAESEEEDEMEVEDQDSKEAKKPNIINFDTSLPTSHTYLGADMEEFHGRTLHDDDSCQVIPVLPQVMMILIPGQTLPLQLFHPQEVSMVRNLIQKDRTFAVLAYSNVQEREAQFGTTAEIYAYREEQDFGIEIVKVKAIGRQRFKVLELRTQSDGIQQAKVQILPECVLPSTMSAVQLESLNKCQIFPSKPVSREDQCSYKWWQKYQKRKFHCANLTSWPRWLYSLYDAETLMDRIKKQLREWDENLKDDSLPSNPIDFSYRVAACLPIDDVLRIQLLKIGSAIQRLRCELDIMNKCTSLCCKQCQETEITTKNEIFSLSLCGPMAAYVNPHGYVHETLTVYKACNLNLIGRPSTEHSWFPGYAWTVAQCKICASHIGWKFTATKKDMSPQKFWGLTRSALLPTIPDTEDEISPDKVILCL
Chain of GSPT1 (Q16531 whole entry partner): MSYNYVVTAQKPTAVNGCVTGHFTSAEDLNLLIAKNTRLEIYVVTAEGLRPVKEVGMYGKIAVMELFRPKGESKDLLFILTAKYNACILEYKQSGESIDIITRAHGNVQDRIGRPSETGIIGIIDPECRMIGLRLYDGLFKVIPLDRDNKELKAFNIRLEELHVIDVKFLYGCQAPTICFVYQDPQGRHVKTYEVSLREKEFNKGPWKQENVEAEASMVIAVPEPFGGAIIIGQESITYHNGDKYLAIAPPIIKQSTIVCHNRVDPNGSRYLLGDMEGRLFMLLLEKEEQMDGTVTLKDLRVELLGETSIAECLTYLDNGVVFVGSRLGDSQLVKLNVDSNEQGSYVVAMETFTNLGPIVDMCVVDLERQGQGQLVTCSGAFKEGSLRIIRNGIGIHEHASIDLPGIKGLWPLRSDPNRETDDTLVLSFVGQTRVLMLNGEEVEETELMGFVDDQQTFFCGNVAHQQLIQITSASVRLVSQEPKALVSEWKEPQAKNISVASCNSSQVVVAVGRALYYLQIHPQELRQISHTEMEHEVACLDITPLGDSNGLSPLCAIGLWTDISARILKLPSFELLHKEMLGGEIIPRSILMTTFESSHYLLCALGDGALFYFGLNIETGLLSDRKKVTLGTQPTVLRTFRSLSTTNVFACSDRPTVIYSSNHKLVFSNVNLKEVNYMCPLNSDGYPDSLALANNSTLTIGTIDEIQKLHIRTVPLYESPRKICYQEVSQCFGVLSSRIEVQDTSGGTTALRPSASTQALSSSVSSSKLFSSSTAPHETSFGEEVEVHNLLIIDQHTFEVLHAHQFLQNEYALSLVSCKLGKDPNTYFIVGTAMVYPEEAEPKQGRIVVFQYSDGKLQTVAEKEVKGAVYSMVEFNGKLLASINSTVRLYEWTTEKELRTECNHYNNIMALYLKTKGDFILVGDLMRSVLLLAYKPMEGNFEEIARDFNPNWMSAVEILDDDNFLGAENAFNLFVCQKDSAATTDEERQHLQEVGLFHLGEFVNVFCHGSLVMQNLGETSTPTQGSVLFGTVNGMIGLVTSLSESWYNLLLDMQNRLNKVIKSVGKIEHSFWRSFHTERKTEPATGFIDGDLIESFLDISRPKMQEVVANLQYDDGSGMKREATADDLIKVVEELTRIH
Outline: as §1

T1 sequence (P48729 whole entry): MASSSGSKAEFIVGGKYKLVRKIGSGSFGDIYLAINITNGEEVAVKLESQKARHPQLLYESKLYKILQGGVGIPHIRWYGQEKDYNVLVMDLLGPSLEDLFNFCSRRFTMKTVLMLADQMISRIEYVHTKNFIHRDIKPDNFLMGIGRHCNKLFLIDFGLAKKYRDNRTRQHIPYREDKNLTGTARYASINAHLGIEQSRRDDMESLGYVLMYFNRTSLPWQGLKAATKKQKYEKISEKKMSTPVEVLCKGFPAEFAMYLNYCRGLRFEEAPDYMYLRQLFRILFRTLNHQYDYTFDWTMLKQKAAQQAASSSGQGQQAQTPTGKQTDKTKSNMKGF
T1 sequence (Q96SW2 whole entry): as the sequence (Q96SW2 whole entry) above
T1 sequence (Q16531 whole entry partner): as the sequence (Q16531 whole entry partner) above

CK1α Ymin (CK1α) | DC50 (CK1α) | DC50 (GSPT1) | GSPT1 Ymin (GSPT1) | Structure (SMILES)
E (E = >25-75% remaining) | < 25 nM | ≥ 25 nM | F (F = >75-100% remaining) | Cn1ncc(-c2ccc3c(c2)CN(C2CCC(=O)NC2=O)C3=O)c1-c1ccc(OC(F)F)cc1 (centres unmarked) [Example 416, 3-(5-(5-(4-(difluoromethoxy)phenyl)-1-methyl-1H-pyrazol-4-yl)-1-oxoisoindolin-2-yl)piperidine-2,6-dione]
D (D = >10- 25% remaining) | < 25 nM | ≥ 25 nM | F (F = >75-100% remaining) | COc1ccc(-c2c(-c3ccc4c(c3)CN(C3CCC(=O)NC3=O)C4=O)cnn2C(F)F)cc1F (centres unmarked) [Example 417, 3-(5-(1-(difluoromethyl)-5-(3-fluoro-4-methoxyphenyl)-1H-pyrazol-4-yl)-1-oxoisoindolin-2-yl)piperidine-2,6-dione]
C (C = 0-10% remaining) | < 25 nM | ≥ 25 nM | E (E = >25-75% remaining) | COc1ccc(-c2c(-c3ccc4c(c3)CN(C3CCC(=O)NC3=O)C4=O)cnn2C(F)F)cc1 (centres unmarked) [Example 418, 3-(5-(1-(difluoromethyl)-5-(4-methoxyphenyl)-1H-pyrazol-4-yl)-1-oxoisoindolin-2-yl)piperidine-2,6-dione]
C (C = 0-10% remaining) | < 25 nM | ≥ 25 nM | F (F = >75-100% remaining) | Cn1c(C2OCCCO2)nc(-c2ccc3c(c2)CN(C2CCC(=O)NC2=O)C3=O)c1-c1ccccc1 (centres unmarked) [Example 419, 3-(5-(2-(1,3-dioxan-2-yl)-1-methyl-5-phenyl-1H-imidazol-4-yl)-1-oxoisoindolin-2-yl)piperidine-2,6-dione]
C (C = 0-10% remaining) | < 25 nM | ≥ 25 nM | F (F = >75-100% remaining) | Cn1c(C2CCOCC2)nc(-c2ccc3c(c2)CN(C2CCC(=O)NC2=O)C3=O)c1-c1cccnc1 (centres unmarked) [Example 420, 3-(5-(1-methyl-5-(pyridin-3-yl)-2-(tetrahydro-2H-pyran-4-yl)-1H-imidazol-4-yl)-1-oxoisoindolin-2-yl)piperidine-2,6-dione]
D (D = >10- 25% remaining) | < 25 nM | ≥ 25 nM | F (F = >75-100% remaining) | O=C1CCC(N2Cc3cc(-c4cn(C(F)F)nc4-c4ccc5c(c4)CCO5)ccc3C2=O)C(=O)N1 (centres unmarked) [Example 423, 3-(5-(1-(difluoromethyl)-3-(2,3-dihydrobenzofuran-5-yl)-1H-pyrazole-4-yl)-1-oxoisoindolin-2-yl)piperidine-2,6-dione]
D (D = >10- 25% remaining) | < 25 nM | ≥ 25 nM | F (F = >75-100% remaining) | O=C1CCC(N2Cc3cc(-c4cnn(C(F)F)c4-c4ccc5c(c4)CCO5)ccc3C2=O)C(=O)N1 (centres unmarked) [Example 424, 3-(5-(1-(difluoromethyl)-5-(2,3-dihydrobenzofuran-5-yl)-1H-pyrazol-4-yl)-1-oxoisoindolin-2-yl)piperidine-2,6-dione]
D (D = >10- 25% remaining) | < 25 nM | ≥ 25 nM | – | COc1ccc(-c2nn(C(F)F)cc2-c2ccc3c(c2)CN(C2CCC(=O)NC2=O)C3=O)c(Cl)c1 (centres unmarked) [Example 425, 3-(5-(3-(2-chloro-4-methoxyphenyl)-1-(difluoromethyl)-1H-pyrazol-4-yl)-1-oxoisoindolin-2-yl)piperidine-2,6-dione]
D (D = >10- 25% remaining) | < 25 nM | ≥ 25 nM | F (F = >75-100% remaining) | CC(C)n1ncc(-c2ccc3c(c2)CN(C2CCC(=O)NC2=O)C3=O)c1-c1ccccc1 (centres unmarked) [Example 426, 3-(5-(1-isopropyl-5-phenyl-1H-pyrazol-4-yl)-1-oxoisoindolin-2-yl)piperidine-2,6-dione]
